Source: publication PMC8000919, “Validation of an LC-MS/MS Method to Quantify the New TRPC6 Inhibitor SH045 (Larixyl N-methylcarbamate) and Its Application in an Exploratory Pharmacokinetic Study in Mice” (Pharmaceuticals, 2021)
pIC50: −log10 of the molar value. Read-outs that look alike come from different tables or passages of the source.

Assays:
[1] = Exploratory plasma pharmacokinetics in mice after single i.p. administration, non-compartmental analysis; assay type: in vivo
Method: The practicability of the validated method for SH045 quantification was verified in a first exploratory pharmacokinetic study in mice. Male C57BL/6 mice (25–30 g body weight, Charles River, Sulzfeld, Germany) were housed in groups under standard conditions, allowed access to lab chow and water ad libitum. Animal experiments were performed according to the national regulations of animal welfare and were ethically approved by the local committee on animal welfare and the local authorities. Animal experiments were performed under strict consideration of the 3R principles (replace, reduce, refine), fully complying with the ARRIVE guidelines.
Solutions of SH045 for i.p. administration were prepared with DMSO (final concentration 0.5%) and Kolliphor® EL (5% in water). SH045 was administered i.p. as a single dose of 20 mg/kg body weight. Blood was collected from mice tail vein at 5, 15, 30, 60, 120, 180 and 360 min after administration via heparinized catheters. After centrifugation at 4000× g at 4 °C for 10 min, plasma was stored at −80 °C until analysis.
For sample preparation, 20 µL of thawed plasma were mixed with 2 µL of IS (50 µg/mL), vortexed for 30 s, added with 178 µL ice-cold ACN and shaken vigorously for 5 min. After centrifugation at 104,000× g for 15 min, the supernatant was filtered through a 0.2 µm pore-size syringe filter (Phenex-RC 4 mm, Phenomenex, Aschaffenburg, Germany) and stored in the autosampler at 6 °C until analysis by LC-MS/MS, as mentioned above.
The evaluation of basic pharmacokinetic parameters of SH045 (20 mg/kg, i.p.) following a single dose was performed by non-compartmental analysis using a commercially available software program Kinetica, version 5.1 (Thermo Fisher Scientific, Waltham, MA, USA). The Cmax and Tmax were obtained directly from the plasma concentration-time curve. The slope of the terminal phase of the SH045 concentration profile (ʎz) was estimated as absolute values from >4 data points using a log-linear regression analysis.
The area under the plasma concentration-time curve (AUC) for the time (t) providing the final measurable concentration (AUClast) was calculated using the log-linear trapezoidal rule.
The AUC0–∞ was then determined as AUClast + Clast/ʎz, where Clast is the last measurable concentration. The systemic total body clearance from plasma (CLp) was calculated as applied dose divided by AUC0–∞. MRT was calculated as AUMC0–∞/AUC0–∞, where area under the first-moment curve (AUMC) was defined as area under the curve of the product of time and the plasma drug concentration versus time from zero to infinity.
The volume of distribution, VZ, was calculated as CLp/ʎz. Finally, the AUCextra extrapolates the AUC from the last measured time point to infinity.

[2] = Plasma protein binding (PPB) by ultrafiltration; assay type: in vitro ADME; conditions: mouse plasma
Method: PPB of SH045 in mice plasma was determined at two concentrations, 100 and 800 ng/mL, using ultrafiltration. For that, 2 µL of working solutions of SH045 in DMSO (final concentration […]) were mixed with 298 µL blank plasma and incubated at 37 °C for 30 min. To determine the total concentration of SH045, 60 µL sample were taken out. The remaining 240 µL of spiked plasma were transferred to a centrifugal filter (Centrifugal Filter Units, 30 kDa cut-off, Millipore, County Cork, Ireland) and centrifuged at room temperature for 10 min at 1000× g. The filtrates were analyzed for the unbound SH045. The PPB was calculated as PPB (%) = (Ct − Cf)/Ct × 100, with Ct as total SH045 concentration in spiked plasma and Cf as unbound SH045 concentration in the filtrate.

[3] = Stability in stock and working solutions; assay type: physicochemical; conditions: nominal 1000 ng/mL
Method: Analytic stock solutions of SH045 and of IS (1 mg/mL each) were prepared in ACN and stored at −20 °C. Working solutions of SH045 and of IS (50 µg/mL) were freshly prepared by dilution with water/ACN 1:1 (v/v). Calibration and QC samples were prepared by addition of 2 μL SH045 working solutions and 2 μL IS solution to 18 μL of blank plasma, further processed identically to the preparation of plasma (see below). Freshly prepared calibration samples for SH045 in plasma comprised eight concentration levels analyzed in duplicates (2, 5, 10, 100, 200, 800, 1200 and 1600 ng/mL).
The stability of SH045 and IS in stock solutions stored at −20 °C for 28 days and in working solutions stored at 4 °C for 12 h was determined comparing the analyzed with the nominal concentration and accepted when accuracy was within 15%.

[4] = Stability in plasma QC samples under storage conditions; assay type: physicochemical, mice; conditions: for Stability in autosampler, Accuracy / Stability in autosampler, Mean ± SEM: extracted plasma QC samples, 6 °C; for Stability in autosampler, Accuracy / Stability in autosampler, Mean ± SEM / Freeze and thaw stability, Accuracy / Freeze and thaw stability, Mean ± SEM: 12 h; for Short-term stability, Accuracy / Short-term stability, Mean ± SEM / Freeze and thaw stability, Accuracy / Freeze and thaw stability, Mean ± SEM / Long-term stability, Accuracy / Long-term stability, Mean ± SEM: plasma QC samples; for Short-term stability, Accuracy / Short-term stability, Mean ± SEM: 25 °C, 4 h; for Freeze and thaw stability, Accuracy / Freeze and thaw stability, Mean ± SEM / Long-term stability, Accuracy / Long-term stability, Mean ± SEM: −20 °C; for Freeze and thaw stability, Accuracy / Freeze and thaw stability, Mean ± SEM: 3 cycles; for Long-term stability, Accuracy / Long-term stability, Mean ± SEM: 30 days
Method: […] The accuracy of the mean concentration at each of the three QC levels was accepted within ±15% of nominal concentration. All stability experiments were carried out in three replicates.

[5] = tested on: TRPC6; design: method as in PMID 29522264; conditions: patch-clamp recordings; read-out: IC50 to block inward currents; cited from earlier work
[6] = tested on: TRPC6; design: method as in PMID 29522264; conditions: stably TRPC6-transfected HEK293 cells; read-out: IC50 to inhibit Ca2+ influx; cited from earlier work
[7] = tested on: TRPC3; design: method as in PMID 29522264; conditions: TRPC6 over TRPC3; cited from earlier work
[8] = tested on: TRPC3/6 channels of rat PASMC; design: method as in PMID 29522264; conditions: 1-oleyl-2-acetyl-sn-glycerol (OAG)-induced; cited from earlier work
[9] = tested on: ischemic lungs explanted from mice; design: method as in PMID 29522264; conditions: ex vivo model of LIRE; cited from earlier work
[10] = male, C57BL/6, mouse, ip, mice plasma, single dose 20 mg/kg body weight
[11] = stock solution, −20 °C, 28 days

C=C[C@@](C)(O)CC[C@H]1C(=C)C[C@H](OC(=O)NC)[C@H]2C(C)(C)CCC[C@]12C [SH045, (1S,4S,4aR,8aS)-4-((S)-3-Hydroxy-3-methylpent-4-en-1-yl)-4a,8,8-trimethyl-3-methylenedecahydronaphthalen-1-yl methylcarbamate]
plasma concentration relative to IC50 for Ca2+ influx ([1]; five hours after administration of 20 mg/kg): at least two-fold higher | AUC(0-inf) [1, 10]: 1470 ng·h/mL | AUC(0-t) [1, 10]: 1410 ng·h/mL | Cmax [1, 10]: 756 ng/mL | MRT [1, 10]: 1.9 h | Tmax [1, 10]: 30 min | half-life ([1]; male, C57BL/6, mouse, plasma, ip, 20 mg/kg, mice plasma, single dose 20 mg/kg body weight): 78 min | T1/2 ([1]; mice plasma, single dose 20 mg/kg body weight, i.p., 20 mg/kg): 1.31 h | % AUC (AUCextra as percent) ([1]; mice plasma, single dose 20 mg/kg i.p., extrapolated part of AUC): 4.3% | fraction unbound at 30 min, 100 ng/mL ([2]; 100 ng/mL SH045, ultrafiltration): 0.022 | fraction unbound at 30 min, 800 ng/mL ([2]; 800 ng/mL SH045, ultrafiltration): 0.003 | Stability, Accuracy [3, 11]: 106.6% | Stability, Mean ± SEM [3, 11]: 1066 ± 9 ng/mL | Stability, Accuracy ([3]; working solution, 4 °C, 12 h): 103.7% | Stability, Mean ± SEM ([3]; working solution, 4 °C, 12 h): 1037 ± 10 ng/mL | Stability in autosampler, Accuracy ([4]; nominal 5 ng/mL): 99.0% | Stability in autosampler, Mean ± SEM ([4]; nominal 5 ng/mL): 5.0 ± 0.2 ng/mL | Stability in autosampler, Accuracy ([4]; nominal 800 ng/mL): 100.8% | Stability in autosampler, Mean ± SEM ([4]; nominal 800 ng/mL): 807 ± 28 ng/mL | Stability in autosampler, Accuracy ([4]; nominal 1200 ng/mL): 104.7% | Stability in autosampler, Mean ± SEM ([4]; nominal 1200 ng/mL): 1256 ± 50 ng/mL | Short-term stability, Accuracy ([4]; nominal 5 ng/mL): 107.6% | Short-term stability, Mean ± SEM ([4]; nominal 5 ng/mL): 5.4 ± 0.1 ng/mL | Short-term stability, Accuracy ([4]; nominal 800 ng/mL): 101.9% | Short-term stability, Mean ± SEM ([4]; nominal 800 ng/mL): 816 ± 2 ng/mL | Short-term stability, Accuracy ([4]; nominal 1200 ng/mL): 98.8% | Short-term stability, Mean ± SEM ([4]; nominal 1200 ng/mL): 1186 ± 36 ng/mL | Freeze and thaw stability, Accuracy ([4]; nominal 5 ng/mL): 97.2% | Freeze and thaw stability, Mean ± SEM ([4]; nominal 5 ng/mL): 4.9 ± 0.2 ng/mL | Freeze and thaw stability, Accuracy ([4]; nominal 800 ng/mL): 90.1% | Freeze and thaw stability, Mean ± SEM ([4]; nominal 800 ng/mL): 721 ± 8 ng/mL | Freeze and thaw stability, Accuracy ([4]; nominal 1200 ng/mL): 90.2% | Freeze and thaw stability, Mean ± SEM ([4]; nominal 1200 ng/mL): 1083 ± 41 ng/mL | Long-term stability, Accuracy ([4]; nominal 5 ng/mL): 107.3% | Long-term stability, Mean ± SEM ([4]; nominal 5 ng/mL): 5.4 ± 0.3 ng/mL | Long-term stability, Accuracy ([4]; nominal 800 ng/mL): 95.4% | Long-term stability, Mean ± SEM ([4]; nominal 800 ng/mL): 763 ± 9 ng/mL | Long-term stability, Accuracy ([4]; nominal 1200 ng/mL): 99.9% | Long-term stability, Mean ± SEM ([4]; nominal 1200 ng/mL): 1199 ± 29 ng/mL | pIC50 [5]: 8.24 | pIC50 [6]: 7.20 | subtype selectivity over TRPC3 [7]: 13 fold | effect on OAG-induced Ca2+ entry [8]: inhibited | edema formation after reperfusion [9]: reduced edema formation
